Assay results published in patent US12636270B2, “Levothyroxine liquid formulations” (Fresenius Kabi USA, LLC, priority 2016, dated 2026).
Where two headings read alike, the source gives them in different places.

Settings: 20 mcg/mL, tromethamine 10 mg/mL, 5.4 mg/mL sodium chloride in water
Method: Separate samples containing 20 mcg/mL levothyroxine sodium, 10 mg/mL tromethamine, 5.4 mg/mL sodium chloride, and sodium iodide at a concentration of 280 mcg/mL, 140 mcg/mL, or 6 mcg/mL in water were adjusted to various pH levels. 5 mL of each sample was filled into 10 cc flint molded vials, and the vials were stoppered with 20 mm stoppers under nitrogen.
The samples also were stored at temperatures of 25° C. or 40° C. for 2M or 4M prior to analysis by HPLC.
The HPLC conditions were as follows: • Column: Phenomenex Kinetex 2.6 μm C18, 4.6×150 mm HPLC column • Mobile Phase A: 0.05 M Sulfamic Acid, pH 2.0 • Mobile Phase B: Acetonitrile • Diluent: 10% Mobile Phase A in Methanol: Acetonitrile: Mobile Phase A (1000 mL: 300 mL: 700 mL) • Column temperature: 27° C. • Flow rate: 1.2 mL/min • Injection volume: 50 μL • Autosampler temperature: 25° C. • Detection: UV at 225 nm • Separation mode: Gradient Gradient Program: […]

[1] = 25° C., 2 M, NaI 6 mcg/mL, pH 10.5
[2] = 25° C., 2 M, NaI 140 mcg/mL, pH 9.5
[3] = 25° C., 2 M, NaI 140 mcg/mL, pH 10
[4] = 25° C., 2 M, NaI 140 mcg/mL, pH 10.5
[5] = 25° C., 2 M, NaI 280 mcg/mL, pH 9.5
[6] = 25° C., 2 M, NaI 280 mcg/mL, pH 10
[7] = 25° C., 2 M, NaI 280 mcg/mL, pH 10.5
[8] = 25° C., 4 M, NaI 6 mcg/mL, pH 10.5
[9] = 25° C., 4 M, NaI 140 mcg/mL, pH 9.5
[10] = 25° C., 4 M, NaI 140 mcg/mL, pH 10
[11] = 25° C., 4 M, NaI 140 mcg/mL, pH 10.5
[12] = 25° C., 4 M, NaI 280 mcg/mL, pH 9.5
[13] = 25° C., 4 M, NaI 280 mcg/mL, pH 10
[14] = 25° C., 4 M, NaI 280 mcg/mL, pH 10.5
[15] = 40° C., 2 M, NaI 6 mcg/mL, pH 10.5
[16] = 40° C., 2 M, NaI 140 mcg/mL, pH 9.5
[17] = 40° C., 2 M, NaI 140 mcg/mL, pH 10
[18] = 40° C., 2 M, NaI 140 mcg/mL, pH 10.5
[19] = 40° C., 2 M, NaI 280 mcg/mL, pH 9.5
[20] = 40° C., 2 M, NaI 280 mcg/mL, pH 10
[21] = 40° C., 2 M, NaI 280 mcg/mL, pH 10.5
[22] = 40° C., 4 M, NaI 6 mcg/mL, pH 10.5
[23] = 40° C., 4 M, NaI 140 mcg/mL, pH 9.5
[24] = 40° C., 4 M, NaI 140 mcg/mL, pH 10
[25] = 40° C., 4 M, NaI 140 mcg/mL, pH 10.5
[26] = 40° C., 4 M, NaI 280 mcg/mL, pH 9.5
[27] = 40° C., 4 M, NaI 280 mcg/mL, pH 10
[28] = 40° C., 4 M, NaI 280 mcg/mL, pH 10.5

**Q.** For `N[C@@H](Cc1cc(I)c(Oc2cc(I)c(O)c(I)c2)c(I)c1)C(=O)[O-].[Na+]` [Levothyroxine Na, 4-(4-hydroxy-3,5-diiodophenoxy)-3,5-diiodo-L-phenylalanine sodium], which “% AOII” value [1] is on record?
**A.** 0.46%

**Q.** And the “% total impurities” value [1]?
**A.** 1.85%

**Q.** And the “% AOII” value [2]?
**A.** 0.09%

**Q.** And the “% Liothyronine” value [2]?
**A.** 0.29%

**Q.** What about the “% total impurities” value [2] of the same compound?
**A.** 0.76%

**Q.** And the “% AOII” value [3]?
**A.** 0.10%

**Q.** What about the “% total impurities” value [3] of the same compound?
**A.** 0.77%

**Q.** And the “% AOII” value [4]?
**A.** 0.12%

**Q.** What about the “% Liothyronine” value [4] of the same compound?
**A.** 0.24%

**Q.** And the “% total impurities” value [4]?
**A.** 0.88%

**Q.** And the “% AOII” value [5]?
**A.** 0.11%

**Q.** What about the “% total impurities” value [5] of the same compound?
**A.** 0.81%

**Q.** And the “% AOII” value [6]?
**A.** 0.12%

**Q.** And the “% Liothyronine” value [6]?
**A.** 0.24%

**Q.** What about the “% total impurities” value [6] of the same compound?
**A.** 0.8%

**Q.** And the “% AOII” value [7]?
**A.** 0.11%

**Q.** What about the “% Liothyronine” value [7] of the same compound?
**A.** 0.23%

**Q.** And the “% total impurities” value [7]?
**A.** 0.85%

**Q.** What about the “% AOII” value [8] of the same compound?
**A.** 1.21%

**Q.** And the “% total impurities” value [8]?
**A.** 2.81%

**Q.** What about the “% AOII” value [9] of the same compound?
**A.** 0.18%

**Q.** What about the “% Liothyronine” value [9] of the same compound?
**A.** 0.35%

**Q.** And the “% total impurities” value [9]?
**A.** 1.00%

**Q.** What about the “% AOII” value [10] of the same compound?
**A.** 0.17%

**Q.** What about the “% total impurities” value [10] of the same compound?
**A.** 0.93%

**Q.** What about the “% AOII” value [11] of the same compound?
**A.** 0.17%

**Q.** What about the “% total impurities” value [11] of the same compound?
**A.** 0.94%

**Q.** What about the “% AOII” value [12] of the same compound?
**A.** 2.14%

**Q.** What about the “% Liothyronine” value [12] of the same compound?
**A.** 0.35%

**Q.** What about the “% total impurities” value [12] of the same compound?
**A.** 3.26%

**Q.** What about the “% AOII” value [13] of the same compound?
**A.** 0.17%

**Q.** And the “% total impurities” value [13]?
**A.** 0.93%

**Q.** And the “% AOII” value [14]?
**A.** 0.11%

**Q.** And the “% total impurities” value [14]?
**A.** 1.04%

**Q.** And the “% AOII” value [15]?
**A.** 0.91%

**Q.** And the “% Liothyronine” value [15]?
**A.** 0.43%

**Q.** What about the “% total impurities” value [15] of the same compound?
**A.** 2.5%

**Q.** What about the “% AOII” value [16] of the same compound?
**A.** 0.14%

**Q.** And the “% Liothyronine” value [16]?
**A.** 0.88%

**Q.** What about the “% total impurities” value [16] of the same compound?
**A.** 1.42%

**Q.** And the “% AOII” value [17]?
**A.** 0.14%

**Q.** What about the “% Liothyronine” value [17] of the same compound?
**A.** 0.55%

**Q.** What about the “% total impurities” value [17] of the same compound?
**A.** 1.18%

**Q.** And the “% AOII” value [18]?
**A.** 0.15%

**Q.** What about the “% Liothyronine” value [18] of the same compound?
**A.** 0.41%

**Q.** What about the “% total impurities” value [18] of the same compound?
**A.** 1.09%

**Q.** What about the “% AOII” value [19] of the same compound?
**A.** 0.13%

**Q.** And the “% Liothyronine” value [19]?
**A.** 0.9%

**Q.** And the “% total impurities” value [19]?
**A.** 1.56%

**Q.** And the “% AOII” value [20]?
**A.** 0.13%

**Q.** And the “% Liothyronine” value [20]?
**A.** 0.55%

**Q.** What about the “% total impurities” value [20] of the same compound?
**A.** 1.2%

**Q.** What about the “% AOII” value [21] of the same compound?
**A.** 0.17%

**Q.** What about the “% Liothyronine” value [21] of the same compound?
**A.** 0.39%

**Q.** What about the “% total impurities” value [21] of the same compound?
**A.** 1.07%

**Q.** And the “% AOII” value [22]?
**A.** 1.45%

**Q.** What about the “% Liothyronine” value [22] of the same compound?
**A.** 0.6%

**Q.** What about the “% total impurities” value [22] of the same compound?
**A.** 3.51%

**Q.** And the “% AOII” value [23]?
**A.** 0.72%

**Q.** And the “% Liothyronine” value [23]?
**A.** 1.3%

**Q.** And the “% total impurities” value [23]?
**A.** 2.84%

**Q.** And the “% AOII” value [24]?
**A.** 0.92%

**Q.** And the “% Liothyronine” value [24]?
**A.** 0.86%

**Q.** What about the “% total impurities” value [24] of the same compound?
**A.** 2.73%

**Q.** And the “% AOII” value [25]?
**A.** 0.69%

**Q.** And the “% Liothyronine” value [25]?
**A.** 0.59%

**Q.** What about the “% total impurities” value [25] of the same compound?
**A.** 2.14%

**Q.** And the “% AOII” value [26]?
**A.** 0.52%

**Q.** And the “% Liothyronine” value [26]?
**A.** 1.23%

**Q.** And the “% total impurities” value [26]?
**A.** 2.76%

**Q.** What about the “% AOII” value [27] of the same compound?
**A.** 1.38%

**Q.** What about the “% Liothyronine” value [27] of the same compound?
**A.** 0.84%

**Q.** What about the “% total impurities” value [27] of the same compound?
**A.** 3.23%

**Q.** What about the “% AOII” value [28] of the same compound?
**A.** 1.07%

**Q.** And the “% Liothyronine” value [28]?
**A.** 0.58%

**Q.** And the “% total impurities” value [28]?
**A.** 2.72%
